The values below come from patent US20250099596A1, “TETRAHYDRONAPHTHALENE COMPOUND, AND PREPARATION METHOD THEREFOR AND USE THEREOF IN MEDICINE” (Jiangsu Hengrui Pharmaceuticals Co., Ltd., priority 2021, published 2025).

Where two headings read alike, the source gives them in different places.

One data set has as its system MCF7 cells. Kind of data set: Inhibitory effects on MCF7 cell proliferation (CellTiter-Glo). Format: cell-based. The conditions noted are these: Homo sapiens, 144 h, 6 days incubation, read-out: IC50 (nM), inhibition of MCF7 cell proliferation. Put shortly: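 MCF7 cells seeded at 3,000 cells/well in MEM with 2% FBS, then treated next day with 9 final concentrations (4-fold dilutions from 1000 nM) for 6 days at 37° C; blank control 0.5% DMSO. Viability read by CellTiter-Glo luminescence; IC50 fitted from concentration–signal data.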
Background: In ATP-based viability assays light output follows the ATP content of the culture.

Data set [1] is described as follows: Pharmacokinetic evaluation, C57 mouse test. To be noted: C57 mice; for AUC(0-t): read-out: Area under curve AUC0-t; for half-life: read-out: Half-life T1/2 (converted); for Cmax: read-out: Plasma concentration Cmax. Format: in vivo. How it is done:
With C57 mice as test animals, the plasma concentration of the compound of Example 26-1 was determined by LC/MS/MS at different time points after intragastric (i.g.)/intravenous (i.v.) administration to C57 mice. The pharmacokinetic behavior of the compound of the present disclosure in C57 mice was studied and its pharmacokinetic profile was evaluated.
Eighteen female C57 mice were evenly divided into 2 groups and fasted overnight, and the 2 groups were dosed intragastrically and intravenously, respectively. The mice were provided by Zhejiang Vital River Laboratory Animal Technology Co., Ltd.
An appropriate amount of the compound of Example 26-1 was weighed out and mixed with 5% DMSO+5% Tween 80+90% normal saline to make a 0.1 mg/mL colorless clear solution (for the intragastric administration group) and a 0.1 mg/mL colorless clear solution (for the intravenous administration group).
The intragastric administration group: the dose was 2.0 mg/kg, and the volume was 0.2 mL/10 g.
The intravenous administration group: the dose was 1.0 mg/kg, and the volume was 0.1 mL/10 g.
The intragastric administration group: Blood (0.1 mL) was collected into EDTA-K2 anticoagulation tubes before administration and 0.25 h, 0.5 h, 1.0 h, 2.0 h, 4.0 h, 6.0 h, 8.0 h, 11.0 h and 24.0 h after administration and centrifuged at 10,000 rpm for 1 min (4° C.). The plasma was separated within 1 h and stored at −20° C. before analysis. The process from blood collection to centrifugation was performed in an ice bath. Two hours after administration, feeding was resumed.
The intravenous administration group: Blood was collected before administration and 5 min, 15 min, 0.5 h, 1.0 h, 2.0 h, 4.0 h, 8.0 h, 11.0 h and 24 h after administration and processed as in the intragastric administration group.
The plasma concentration of the test compound was determined after administration of different concentrations of the test compound to C57 mice: plasma samples (25 μL) were collected from C57 mice at various time points after administration, proteins were precipitated with 200 μL of acetonitrile, and 50 μL of camptothecin (100 ng/mL) was added. The mixtures were vortexed for 5 min and centrifuged at 4000 rpm for 10 min. […] of supernatant was collected for LC-MS/MS analysis.

Data set [2] deals with human breast cancer cell MCF-7 (Y537S) xenograft tumors. Kind of data set: Pharmacodynamic test: MCF-7 (Y537S) xenograft tumors in BEIGE SCID mice. Format: in vivo. To be noted: for Number of remaining animals/group / Mean tumor volume (mm^3) D 0 / Mean tumor volume (mm^3) D 28 / TGI (%) D 28: i.g., qd/28 d; for Mean tumor volume (mm^3) D 0: D 0 (day of grouping). An excerpt:
To evaluate the inhibitory effect of the compound of the present disclosure on the growth of human breast cancer cell MCF-7 (Y537S) xenograft tumors in BEIGE SCID mice.
A 2% Tween 80+98% PEG-400 solution was used.
Animals: BEIGE SCID female mice, purchased from Beijing Vital River Laboratory Animal Technology Co., Ltd. (certificate No. SCXK (Beijing) 2016-0006), weighing about 19 g on purchase.
BEIGE SCID mice were acclimatized and then grouped as follows:
MCF-7 (Y537S) cells in the logarithmic growth phase were subcutaneously inoculated at 1.0×10^7/mouse/200 μL (containing 100 μL of matrigel) into the right flank of female BEIGE SCID mice. After 18 days, when the tumor volume of tumor-bearing mice reached about 170 mm^3, the mice were randomly divided into 4 groups of 8 by tumor volume and body weight: a vehicle control group, an Example 26-1 5 mpk group, an Example 26-1 15 mpk group, and an Example 26-1 45 mpk group. The day of grouping was set as DO, and intragastric administration was started and performed once a day for 28 days. The 28th day after administration was set as D28 (Table 7). For the tumor-bearing mice, the tumor volume was measured with a vernier caliper and the body weight was measured with a balance twice a week, and data were recorded.
All data were plotted and statistically analyzed using Excel and GraphPad Prism 8 software.
The tumor volume (V) was calculated as follows: V=1/2×a×b^2, where a and b represent length and width, respectively.
The relative tumor proliferation rate T/C (%)=(T−T0)/(C−C0)×100(%), where T and C are tumor volumes of a treatment group and the control group respectively at the end of the experiment; T0 and C0 are tumor volumes of a treatment group and the control group respectively at the beginning of the experiment.
Tumor growth inhibition ? TGI (%)=1−T/C (%), and if TGI (%) exceeds 100%, it will not be shown as a specific value but >100%.

The mark [3] stands for this setting: female, mouse, plasma, iv, i.v., 1.0 mg/kg.
Where [4] appears, read: female, mouse, plasma, po, i.g., 2.0 mg/kg.

On to `CC(C)C[C@H]1CCc2cc(O)ccc2[C@H]1c1ccc(N2CCC(CN3CCN(c4ccc5c(c4)CN([C@H]4CCC(=O)NC4=O)C5=O)CC3)CC2)cc1` [Example 26-1, (S)-3-(5-(4-((1-(4-((1R,2R)-6-Hydroxy-2-isobutyl-1,2,3,4-tetrahydronaphthalen-1-yl)phenyl)piperidin-4-yl)methyl)piperazin-1-yl)-1-oxoisoindolin-2-yl)piperidine-2,6-dione], for which the IC50 in the data set on MCF7 cells amounted to 0.59 nM. Also, the “Clearance CL/F” value in data set [1] (i.v., 1.0 mg/kg) was found to be 0.924 L/h/kg. In addition, in data set [1] (setting [3]), the AUC(0-t) was 1.07 µg·h/mL, the half-life was 4 h and the Cmax came out at 1.22 µg/mL. For the same compound, the Vd/F in data set [1] (female, mouse, plasma, po, i.g., 2.0 mg/kg, read-out: Apparent distribution volume Vz/F) turned out to be 28.3 L/kg. In data set [1] (setting [4]), the AUC(0-t) amounted to 0.517 µg·h/mL, the half-life is 5.3 h and the Cmax was 0.059 µg/mL. In data set [1] (female, mouse, plasma, po, i.g., 2.0 mg/kg, read-out: Clearance CL/F), the CL/F came out at 3.73 L/h/kg. Besides, the “Effect on the body weight of BEIGE SCID mice” value in data set [2] (i.g., 5, 15, 45 mpk, qd for 28 days) is given as “did not affect mouse body weight”. Moreover, in data set [2] (5 mpk), the “Number of remaining animals/group” value is reported as 8/8, the “Mean tumor volume (mm^3) D 0” value is listed as 170.2 mm^3, the “Mean tumor volume (mm^3) D 28” value was 305.0 mm^3 and the “TGI (%) D 28” value is reported as 72%. In data set [2] (15 mpk), the “Number of remaining animals/group” value is listed as 8/8, the “Mean tumor volume (mm^3) D 0” value is listed as 168.2 mm^3, the “Mean tumor volume (mm^3) D 28” value came out at 219.7 mm^3 and the “TGI (%) D 28” value was 89%. Moreover, in data set [2] (45 mpk), the “Number of remaining animals/group” value was 8/8, the “Mean tumor volume (mm^3) D 0” value was 168.6 mm^3, the “Mean tumor volume (mm^3) D 28” value amounted to 192.0 mm^3 and the “TGI (%) D 28” value amounted to 95%.
